This assay has as its system gastric acid secretion. Put plainly: Inhibition of gastric acid secretion in Shay rats (Shay's method, pylorus ligation). In kind it is in vivo, Male Wistar rats. As to conditions: Rattus norvegicus, administered intraduodenally; for ED50: 2 h; for inhibition in vivo at 40 mg/kg: intraduodenal, 2 h after pylorus ligation, read-out: Percentage inhibition of gastric acid secretion. From the text: Shay's method [H. Shay; S. A. Komarov; S. S. Fels; D. Merange: M. Grvenstein; H. Siplet: Gastroenterology, 5, 43 (1945)--F. E. Visscber; P. H. Seay: A. P. Taxelaar; W. Veldkamp; M. J. Vander Brook: J. Pharmac. Exp. Ther., 110, 188 (1954)--"Animal Experiments in Pharmacological Analysis", F. R. Domer: C. C. Thomas, published by Springfield, Ill., U.S.A., 1970, p. 140].
Male Wistar rats weighing 200 to 250 grams are used in this test; they are fasted from the day preceding the day of the test, with free access to water. Groups containing a minimum of 4 animals each are used.
The rats are anesthetized with ethyl ether, a laparotomy is performed on them and their pylorus is ligated; the abdominal incision is then sewn up. The administration of the products, with the vehicle for the control group, is effected intraduodenally (i.d.) before the abdominal incision is sewn up. The dose administered in the first test is 40 mg/kg and the 50% effective dose (ED50), administered intraduodenally, is also determined in a second test. The vehicle used is gum arabic at a concentration of 5% w/v in double-distilled water.
Two hours after ligation of the pylorus, the rats are sacrificed by prolonged anesthesia with ethyl ether and the volume of gastric juice is measured; the total acidity is determined by means of a pH meter equipped with an automatic burette. For each product and each dose tested, the percentage inhibition of gastric acid secretion is determined relative to the control group.

We go through 32 compounds from US4943570A, “Benzimidazolesulfonamides and imidazopyridinesulfonamides, and their application as drugs” (Laboratorios Del Dr. Esteve, S.A., priority 1986, dated 1990).

`O=S(=O)(c1nc2ccccc2[nH]1)N1CCCCC1CO` (stereo not shown) [Example 28, 2-(Sulfonyl-2-hydroxymethyl-1-piperidinyl)-1H-benzimidazole]: the ED50 was found to be 38.5 mg/kg and the inhibition in vivo at 40 mg/kg came to 51.4%.

Regarding `O=[N+]([O-])c1ccc2c(c1)nc1n2CCN(C23CC4CC(CC(C4)C2)C3)S1(=O)=O` [Example 147, 2H-2-(1-Adamantyl)-3,4-dihydro-8-nitro-[1,2,5]-thiadiazino[5,6-a]benzimidazole 1,1-dioxide], it took a dose of 44 mg/kg to reach the 50% effect level (ED50) and the inhibition in vivo at 40 mg/kg came out at 46.5%.

As to `CCCCN1CCn2c(nc3ccccc32)S1(=O)=O` [Example 100, 2H-2-Butyl-3,4-Dihydro-[1,2,5]-thiadiazino[5,6-a]-benzimidazole 1,1-dioxide], the 50% effect level (ED50) was put at a dose of 37.6 mg/kg and the inhibition in vivo at 40 mg/kg was 51.8%.

In the case of `O=[N+]([O-])c1ccc2c(c1)nc1n2CC2CCCCN2S1(=O)=O` (stereo not shown) [Example 181, 1,2,3,4,13,14-Hexahydro-9-nitropyrido[1',2':2,3]-[1,2,5-thiadiazino5,6-a]benzimidazole 6,6-dioxide], it took a dose of 62 mg/kg to reach the 50% effect level (ED50) and the inhibition in vivo at 40 mg/kg came to 43.4%.

Take `CCN(CC)CCCC(C)N(CC)S(=O)(=O)c1nc2ccc(Cl)cc2n1CC` (stereo not shown) [Example 74, 6-Chloro-1,N-diethyl-N-(4-diethylamino-1-methylbutyl)-1H-benzimidazole-2-sulfonamide]: the ED50 came out at 17.9 mg/kg and the inhibition in vivo at 40 mg/kg came to 76.4%.

With `O=[N+]([O-])c1ccc2nc3n(c2c1)CC1CCCCN1S3(=O)=O` (stereo not shown) [Example 182, 1,2,3,4,13,14-Hexahydro-10-nitropyrido[1',2':2,3]-[1,2,5]-thiadiazino[5,6-a]benzimidazole 6,6-dioxide], the ED50 was 61.2 mg/kg and the inhibition in vivo at 40 mg/kg was 42.1%.

As to `CCN(CC)CCCC(C)NS(=O)(=O)c1nc2ccc(Cl)cc2n1CC` (stereo not shown) [Example 69, 6-Chloro-N-(4-diethylamino-1-methylbutyl)-1-ethyl-1H-benzimidazole-2-sulfonamide], the ED50 stood at 39.2 mg/kg and the inhibition in vivo at 40 mg/kg was found to be 54.3%.

`CCNS(=O)(=O)c1nc2ccccc2n1CC` [Example 62, 1,N-diethyl-1H-benzimidazole-2-sulfonamide]: the ED50 is 31 mg/kg and the inhibition in vivo at 40 mg/kg is 52.4%.

In the case of `CCN1CCCn2c(nc3ccccc32)S1(=O)=O` [Example 90, 3,4,5-Trihydro-2H-2-ethyl-[1,2,6]-thiadiazepino[6,7-a]-benzimidazole 1,1-dioxide], the ED50 was found to be 64 mg/kg and the inhibition in vivo at 40 mg/kg was determined as 51.4%.

Consider `CCN1CCn2c(nc3cc(C(=O)c4ccccc4)ccc32)S1(=O)=O` [Example 115, 8-Benzoyl-3,4-dihydro-2H-2-ethyl-[1,2,5]-thiadiazino-[5,6-a]benzimidazole 1,1-dioxide], for which the ED50 amounted to 38.9 mg/kg and the inhibition in vivo at 40 mg/kg came to 51.1%.

For the compound `CCN(CC)CCCC(C)N1CCn2c(nc3cc([N+](=O)[O-])ccc32)S1(=O)=O` (stereo not shown) [Example 143, 2H-2-(4-Diethylamino-1-methylbutyl)-3,4-dihydro-8-nitro-[1,2,5]-thiadiazino[5,6-a]benzimidazole 1,1-dioxide], the ED50 worked out at 20.5 mg/kg and the inhibition in vivo at 40 mg/kg amounted to 99.3%.

For `CCN(CC)CCCC(C)NS(=O)(=O)c1nc2cc(Cl)ccc2n1CC` (stereo not shown) [Example 68, 5-Chloro-N-(4-diethylamino-1-methylbutyl)-1-ethyl-1H-benzimidazole-2-sulfonamide], the ED50 is 39.7 mg/kg and the inhibition in vivo at 40 mg/kg came out at 53.8%.

For the compound `CCN1C(c2ccccc2)=Cn2c(nc3ccccc32)S1(=O)=O` [Example 177, 2H-2-ethyl-3-phenyl-[1,2,5]-thiadiazino[5,6-a]benzimidazole 1,1-dioxide], the ED50 is 38.1 mg/kg and the inhibition in vivo at 40 mg/kg was 53.7%.

In the case of `CCN(CC)CCCC(C)N(CC)S(=O)(=O)c1nc2cc(Cl)ccc2n1CC` (stereo not shown) [Example 73, 5-Chloro-1,N-diethyl-N-(4-diethylamino-1-methylbutyl)-1H-benzimidazole-2-sulfonamide], the 50% effect level (ED50) was put at a dose of 18.5 mg/kg and the inhibition in vivo at 40 mg/kg turned out to be 77.5%.

In the case of `COc1ccc(CCNS(=O)(=O)c2nc3ccccc3[nH]2)cc1OC` [Example 11, N-[2-(3,4-Dimethoxyphenylethyl)]-1H-benzimidazole-2-sulfonamide], it took a dose of 42 mg/kg to reach the 50% effect level (ED50) and the inhibition in vivo at 40 mg/kg is 48.8%.

As to `O=S1(=O)c2nc3ccccc3n2CC2CCCCN21` (stereo not shown) [Example 180, 1,2,3,4,13,14-hexahydropyrido-[1',2':2,3]-[1,2,5]-thiadiazino[5,6-a]-benzimidazole 6,6-dioxide], it took a dose of 43.7 mg/kg to reach the 50% effect level (ED50) and the inhibition in vivo at 40 mg/kg was 43.8%.

As for `CCN(CC)CCCC(C)N1CCn2c(nc3ccc(Cl)cc32)S1(=O)=O` (stereo not shown) [Example 103, 7-chloro-3,4-dihydro-2H-2-(4-diethylamino-1-methylbutyl)-[1,2,5]-thiadiazino[5,6-a]benzimidazole 1,1-dioxide], the ED50 turned out to be 15 mg/kg and the inhibition in vivo at 40 mg/kg came out at 72.3%.

As to `CCN(CC)S(=O)(=O)c1nc2ccccc2n1CC` [Example 63, 1,N,N-Triethyl-1H-benzimidazole-2-sulfonamide], the ED50 amounted to 49.2 mg/kg and the inhibition in vivo at 40 mg/kg worked out at 52%.

In the case of `CCN1C(C)Cn2c(nc3ccccc32)S1(=O)=O` (stereo not shown) [Example 170, 3,4-Dihydro-2H-2-ethyl-3-methyl-[1,2,5]-thiadiazino[5,6-a]benzimidazole 1,1-dioxide], the ED50 amounted to 21.8 mg/kg and the inhibition in vivo at 40 mg/kg turned out to be 73.2%.

As for `O=[N+]([O-])c1ccc2nc3n(c2c1)CCNS3(=O)=O` [Example 146, 3,4-Dihydro-2H-7-nitro-[1,2,5]-thiadiazino[5,6-a]-benzimidazole 1,1-dioxide], it took a dose of 20.3 mg/kg to reach the 50% effect level (ED50) and the inhibition in vivo at 40 mg/kg came to 67.5%.

In the case of `CCNS(=O)(=O)c1nc2cc(C(F)(F)F)ccc2[nH]1` [Example 26, N-Ethyl-5-trifluoromethyl-1H-benzimidazole-2-sulfonamide], it took a dose of 38.5 mg/kg to reach the 50% effect level (ED50) and the inhibition in vivo at 40 mg/kg was 53%.

`O=[N+]([O-])c1ccc2[nH]c(S(=O)(=O)NCCN3CCOCC3)nc2c1` [Example 36, N-[2-(4-Morpholinoethyl)]-5-nitro-1H-benzimidazole-2-sulfonamide]: the ED50 is 65.6 mg/kg and the inhibition in vivo at 40 mg/kg is 40%.

For the compound `COc1ccc(CNS(=O)(=O)c2nc3ccccc3[nH]2)cc1` [Example 29, N-(4-Methoxybenzyl)-1H-benzimidazole-2-sulfonamide], the ED50 came out at 37.9 mg/kg and the inhibition in vivo at 40 mg/kg worked out at 54.2%.

As to `CCN(CC)CCCC(C)N1CCn2c(nc3cc(Cl)ccc32)S1(=O)=O` (stereo not shown) [Example 102, 8-Chloro-3,4-dihydro-2H-2-(4-diethylamino-1-methylbutyl)-[1,2,5]-thiadiazino[5,6-a]benzimidazole 1,1-dioxide], it took a dose of 14.1 mg/kg to reach the 50% effect level (ED50) and the inhibition in vivo at 40 mg/kg is 71.4%.

With `CCN1CCn2c(nc3ccc(NC(C)=O)cc32)S1(=O)=O` [Example 150, 7-acetylamino-3,4-dihydro-2H-2-ethyl-[1,2,5]-thiadiazino[5,6-a]benzimidazole 1,1-dioxide], the 50% effect level (ED50) was put at a dose of 41.6 mg/kg and the inhibition in vivo at 40 mg/kg came to 53.4%.

As for `CCN1CCn2c(nc3ccc(N)cc32)S1(=O)=O` [Example 149, 7-amino-3,4-dihydro-2H-2-ethyl-[1,2,5]-thiadiazino[5,6-a]benzimidazole 1,1 dioxide], it took a dose of 32.6 mg/kg to reach the 50% effect level (ED50) and the inhibition in vivo at 40 mg/kg is 64%.

On to `O=S(=O)(Nc1ccccn1)c1nc2ccccc2[nH]1` [Example 5, N-(2-Pyridyl)-1H-benzimidazole-2-sulfonamide], for which it took a dose of 10.8 mg/kg to reach the 50% effect level (ED50) and the inhibition in vivo at 40 mg/kg was determined as 96.4%.

`CCCCNS(=O)(=O)c1nc2ccccc2[nH]1` [Example 14, N-Butyl-1H-benzimidazole-2-sulfonamide]: the ED50 came out at 30.6 mg/kg and the inhibition in vivo at 40 mg/kg worked out at 61.4%.

Take `CCNS(=O)(=O)c1nc2cc(C(=O)c3ccccc3)ccc2[nH]1` [Example 1, 5-benzoyl-N-ethyl-1H-benzimidazole-2-sulfonamide]: the 50% effect level (ED50) was put at a dose of 22.4 mg/kg and the inhibition in vivo at 40 mg/kg came out at 78.7%.

As to `O=[N+]([O-])c1ccc2nc3n(c2c1)CCN(C12CC4CC(CC(C4)C1)C2)S3(=O)=O` [Example 148, 2H-2-(1-Adamantyl)-3,4-dihydro-7-nitro-[1,2,5]-thiadiazino[5,6-a]benzimidazole 1,1-dioxide], the ED50 amounted to 46 mg/kg and the inhibition in vivo at 40 mg/kg worked out at 45.3%.

As to `CCN1CCn2c(nc3ccc(C(=O)c4ccccc4)cc32)S1(=O)=O` [Example 116, 7-Benzoyl-3,4-dihydro-2H-2-ethyl-[1,2,5]-thiadiazino-[5,6-a]benzimidazole 1,1-dioxide], it took a dose of 39.4 mg/kg to reach the 50% effect level (ED50) and the inhibition in vivo at 40 mg/kg amounted to 50.3%.

Turning to `O=[N+]([O-])c1ccc2c(c1)nc1n2CCNS1(=O)=O` [Example 145, 3,4-Dihydro-2H-8-nitro-[1,2,5]-thiadiazino[5,6-a]-benzimidazole 1,1-dioxide], the 50% effective dose (ED50) stood at 19.8 mg/kg and the inhibition in vivo at 40 mg/kg was determined as 68.7%.
